Tests used:
[1] = system: dairy cows; settings: 24 mg/kg of dietary dry matter, 28-day period; increase from 0.8%; cited from earlier work
[2] = system: lactating Holstein cows; experiment: Example 2 feeding trial: milk fatty acid composition; type: in vivo; settings: FIGS. 4 and 5, monensin with safflower oil
Description: Twenty-eight primiparous and 34 multiparous lactating Holstein cows were used in a randomized complete block design with repeated measures. Animals were blocked according to parity and DIM. Cows within each block were then randomly assigned to one of six treatment diets: (1) Control diet (CTL); (2) Control diet including safflower oil supplemented at 6% of DM (SAFF); (3) Control diet including safflower oil supplemented at 6% of DM plus Vitamin E supplemented at 150 IU/kg DM (SAFF/E); (4) Control diet including safflower oil supplemented at 6% of DM plus monensin supplemented at 24 ppm of DM (SAFF/M); (5) Control diet including safflower oil supplemented at 6% of DM plus Vitamin E supplemented at 150 IU/kg DM plus monensin supplemented at 24 ppm of DM (SAFF/M/E); (6) Control diet including flaxseed oil supplemented at 6% of DM plus Vitamin E supplemented at 150 IU/kg DM (FLAX/E). […] Feed intake was recorded daily and adjusted to maintain 5 to 10% orts. […] Milk yield was recorded daily. […] A portion of milk from each cow was preserved with potassium dichromate and analyzed for protein, fat, lactose, and somatic cell count at the Alberta Agriculture, Food and Rural Development Central Milk Testing Laboratory (Edmonton, Alberta, Canada). […] The data were analyzed as a randomized complete block design with repeated measures using MIXED procedure of SAS version 8:3 (SAS Institute, Cary, N.C.).

[3] = system: DMBA-induced mammary tumors in rats; settings: 0.05 g CLA/100 g of diet; cited from earlier work
[4] = system: mouse DMBA model; settings: synthetically prepared mixture of the CLA isomers; cited from earlier work

Row | Compound | CLA in milk fat [1] | persistence of effect on CLA and trans 18:1 [2] | number of mammary tumors [3] | papillomas compared to the control mice [4]
1 | CC[C@@]1([C@@H]2O[C@@H]([C@H]3O[C@@](O)(CO)[C@H](C)C[C@@H]3C)C[C@@H]2C)CC[C@H]([C@]2(C)CC[C@]3(C[C@H](O)[C@@H](C)[C@@H]([C@@H](C)[C@@H](OC)[C@H](C)C(=O)O)O3)O2)O1 [monensin] | 1.3 % of milk fat | consistent across the two-month period |  | 
2 | Conjugated linoleic acid [CLA] |  |  | reduction | about one-half
